Here are results for one molecule from US11129823B2 (Aldeyra Therapeutics, Inc., priority 2016, dated 2021).

Some results are limits rather than exact numbers.

Series [1] has as its system patients with active noninfectious anterior uveitis. In words: Phase II randomized, investigator-masked, comparator-controlled trial of NS2 eye drops in anterior uveitis. In kind it is in vivo, human. The text has this:
Group 2 patients will alternate doses of NS2 and Pred Forte®. All patients will be instructed to maintain at least one hour between any two doses. Patients will be followed for up to 8 weeks and monitored for safety and efficacy at six scheduled visits. Efficacy will be assessed by standard ophthalmic examination procedures and response to treatment will be graded according to established uveitis scales. […] Rescue therapy will consist of therapy dosed at the clinical discretion of the treating physician. Rescued patients will receive a follow-up assessment one week after rescue, and then they will be discontinued from the study. Study drug will be self-administered by the patient (or caregiver). Subjects will be instructed to administer study drug per the treatment arm they are assigned to. Subjects randomized to NS2 or Pred Forte® will begin with one drop in the study eye four (4) times per day. Subjects randomized to the NS2 and Pred Forte® group will be instructed to administer one drop of NS2 four (4) times per day alternating with Pred Forte® two (2) times per day. Pred Forte® will be tapered weekly and continued for up to five (5) weeks as described in Table 1. Based the pre-clinical activity of NS2 in diminishing TH1 cytokines as well as ocular inflammation in a pre-clinical model of uveitis, a Phase II trial of topical ocular NS2 was initiated in patients with active noninfectious anterior uveitis, a rare but serious autoimmune-like ocular disease that can lead to blindness. The design of the anterior uveitis Phase II trial was a randomized, parallel group, investigator-masked, comparator-controlled trial to evaluate the safety and efficacy of NS2 ophthalmic solution in patients with anterior uveitis. The trial assessed signs and symptoms of anterior uveitis including anterior chamber cell counts, which are utilized as the primary endpoints in registration studies of anterior uveitis. The study was conducted at 15 clinical sites in the US. […] Pred Forte® was dosed two (2) times daily and then tapered over a 4 week period. […] Prior to un-masking, one subject in the Pred Forte® group was removed from the ITT population for a history of ovarian cancer within the past 5 years, which met exclusion criteria. […] Patients were followed for 8 weeks and monitored for safety and efficacy at six scheduled visits. Efficacy was assessed by standard ophthalmic examination procedures including slit lamp examination and response to treatment was graded according to established uveitis scales. The visit schedule included a screening randomization visit, a day 4 telephone follow-up visit, and clinic visits at week 1, 2, 4, and 8. […] Rescued patients were followed through the week 8 end of study visit.

The nature of series [2]: Phase 1 clinical study, 7 day QID topical dosing. In kind it is in vivo, human. The procedure:
(§1) The proposed proof of concept study will use the 0.5% dose level of NS2. This dose was selected based on the Phase 1 clinical study results under IND 104,497 and a 9-month dog study with QID (OU) dosing at 0.5%, 0.25%, and 0.1% (w/v). […] Based on the safety profile of the 9-month dog study where 0.5% NS2 was administered QID topically and the 7 day Phase 1 clinical study, a maximum treatment duration of 6-weeks was proposed.

The test system of another series is ocular inflammation. As to conditions: cited from earlier work.
Another series in a line: in vivo. As to conditions: primates. The procedure:
To allow for continuous exposure, NS2 0.5% will be administered at a dose of 4 times per day in Group 1 and Group 2. Aldehydes at concentrations of 10 μM are cytotoxic in cell culture (Maeda et al., 2012, Nat Chem Biol. 8(2):170-8). […] In primates, a single dose of 0.5% NS2 results in anterior eye tissue concentrations that range from 17.6 μM just after dosing to 1.2 μM three hours post dosing.

Series [3] can be described thus: 9-month dog study with QID (OU) topical dosing. In kind it is in vivo. The procedure: as §1
Series [4] has as its system patients with allergic conjunctivitis. The series is described as follows: Phase II clinical trial of topical ocular NS2 in allergic conjunctivitis. Type of series: in vivo, human. As to conditions: after a single eye drop. The text has this: Based on the proposed role of aldehydes in mediating inflammation, in addition to the pre-clinical activity of NS2 in reducing IL-5 and other TH2 cytokines, a Phase II clinical trial of a single dose of topical ocular NS2 was initiated in patients with allergic conjunctivitis, and positive results were obtained from that trial in February 2016. The trial design and data from that trial have been reported previously. […] The positive clinical effects of NS2 continued […].

The subject of series [5] is TH1 and TH2 inflammatory cytokines, IL-10. The note with it: systemically administered; cited from earlier work.

For `CC(C)(O)c1nc2ccc(Cl)cc2cc1N` [NS2], in series [1] (NS2 treated groups), the “frequency of ocular stinging and burning” value is given as “increased frequency”. Besides, the “effects on anterior chamber cell counts” value in series [1] (anterior uveitis population) is “clinically meaningful effects”. Besides, the tolerability entry in series [1] (anterior uveitis population, 0.5% drops 4 times daily, 6 weeks) is reported as “generally well tolerated”. In series [1] (during the study), the “rescue medication required, proportion of patients” value worked out at 20% and the “safety concerns (ocular exam scores, intra-ocular pressure, corneal thickness, visual acuity)” value is on record as “no safety concerns”. The “subjects withdrawn for an adverse event of stinging” value in series [1] (in vivo) was “One”. Moreover, in series [1] (time point not given), the “ACC improvement of at least 1 grade, proportion of patients with successful response” value stood at 53%. For the same molecule, the “reducing inflammatory cell count in the anterior chamber of the eye versus standard of care corticosteroid” value in series [1] (topical ocular) is on record as “statistically indistinguishable from standard of care corticosteroid administration”. In addition, the “grade 0 ACC (anterior chamber cell count) treatment response, proportion of patients” value in series [1] (week 2 study visit, mITT population) is 33%. For the same molecule, the “sustained grade 0 ACC treatment response, proportion of patients” value in series [1] (week 8 study visit, mITT population) is on record as 40%. Besides, the tolerability result in series [2] (0.5% NS2 group, 7 day QID dosing) is on record as “well tolerated”. Besides, the concentration at 7 day in series [2] (human, plasma, topical, 0.5% NS2, 7 day QID dosing, detection limit, each subject, read-out: plasma levels of NS2) is less than 5 ng/mL. In the series on ocular inflammation, the “activity versus topical ocular corticosteroid administration” value is given as “compared favorably”. Also, in the series “in vivo”, the “anterior eye tissue concentration” value came to 17.6 µM and the concentration at 3 h amounted to 1200 nM. The “macroscopic or microscopic evaluations” value in series [3] (9-month, QID (OU) at 0.5%, 0.25%, 0.1% (w/v)) was “no abnormal findings”. Besides, the tolerability entry in series [3] (dog, in vivo) is given as “well tolerated”. Further, in series [4], the “ocular itching and tearing” value was “significantly reduced”. In series [5], the “IL-10 (anti-inflammatory cytokine)” value is given as “up-regulating”; the “levels of TH1 and TH2 inflammatory cytokines” value is “significantly lowered”.
